The text below walks through data of patent publication EP1021178B1, “SELENOPHENE ANTI-TUMOR AGENTS” (Purdue Research Foundation, priority 1996, dated 1997).

The nature of assay [1]: in vitro activity of glycoside prodrug (preliminary). The conditions noted are these: preliminary results.
Assay [2] in a line: in vivo activity of glycoside prodrug (preliminary). The conditions noted are these: preliminary results.

Take `OC[C@H]1O[C@@H](OCc2ccc(-c3ccc(-c4cccs4)s3)s2)[C@H](O)[C@@H](O)[C@@H]1O` [β-D-glucoside of 2-hydroxymethyl-∝-terthiophene]: the in vitro activities result in assay [1] was “retains”. Further, the in vivo activities entry in assay [2] was “retains”.
